Starred links: 1 amine or outer side, 2 acyl side, 3 side chain; linkers in the order of their positions; H or OH if unused. Non-standard residues stand in square brackets, D forms with d. Residues, ends and D or L forms follow the SMILES beside them. Pro(trans-4-guanidino) = N=C(N)N[C@H]1CN[C@H](C(=O)O)C1; Pro(cis-4-guanidino) = NC(N)=N[C@@H]1CN[C@H](C(=O)O)C1; X4 = N=C(N)NC[C@@H]1C[C@@H](C(=O)[*:2])N([*:1])C1; X1 = N=C(N)NC[C@@H]1C[C@H](C(=O)[*:2])N([*:1])C1; X2 = N=C(N)NC[C@H]1C[C@@H](C(=O)[*:2])N([*:1])C1; X5 = N=C(N)NC[C@H]1C[C@H](C(=O)[*:2])N([*:1])C1; X3 = N=C(N)N[C@H]1C[C@H](C(=O)[*:2])N([*:1])C1

Chain of IIbIIIa receptor (P08514 32-1039): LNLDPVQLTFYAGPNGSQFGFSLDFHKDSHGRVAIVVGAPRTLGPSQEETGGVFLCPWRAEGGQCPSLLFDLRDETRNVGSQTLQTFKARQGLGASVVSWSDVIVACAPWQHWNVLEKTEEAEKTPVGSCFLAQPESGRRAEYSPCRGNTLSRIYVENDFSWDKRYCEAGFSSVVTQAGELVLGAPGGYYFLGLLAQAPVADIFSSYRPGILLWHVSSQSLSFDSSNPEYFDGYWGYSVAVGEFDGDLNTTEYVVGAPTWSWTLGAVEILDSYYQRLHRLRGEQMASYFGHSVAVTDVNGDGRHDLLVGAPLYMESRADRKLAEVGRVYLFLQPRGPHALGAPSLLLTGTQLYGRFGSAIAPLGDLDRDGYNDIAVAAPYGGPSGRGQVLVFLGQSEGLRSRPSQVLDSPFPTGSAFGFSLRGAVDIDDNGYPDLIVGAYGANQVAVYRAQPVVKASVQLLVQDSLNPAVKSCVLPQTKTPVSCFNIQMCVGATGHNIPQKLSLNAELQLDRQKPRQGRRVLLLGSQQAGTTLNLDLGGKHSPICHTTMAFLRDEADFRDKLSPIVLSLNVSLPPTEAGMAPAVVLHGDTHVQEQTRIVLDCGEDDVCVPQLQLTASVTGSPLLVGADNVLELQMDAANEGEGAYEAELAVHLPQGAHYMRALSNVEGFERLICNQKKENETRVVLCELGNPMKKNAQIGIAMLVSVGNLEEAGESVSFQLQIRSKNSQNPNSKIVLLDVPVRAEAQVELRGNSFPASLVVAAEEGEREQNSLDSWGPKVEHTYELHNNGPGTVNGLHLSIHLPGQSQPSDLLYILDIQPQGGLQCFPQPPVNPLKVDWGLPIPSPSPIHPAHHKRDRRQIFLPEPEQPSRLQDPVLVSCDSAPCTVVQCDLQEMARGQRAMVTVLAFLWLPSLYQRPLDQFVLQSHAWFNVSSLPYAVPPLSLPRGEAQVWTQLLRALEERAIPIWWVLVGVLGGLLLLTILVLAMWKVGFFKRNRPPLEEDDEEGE
Chain of IIbIIIa receptor (P05106 27-788): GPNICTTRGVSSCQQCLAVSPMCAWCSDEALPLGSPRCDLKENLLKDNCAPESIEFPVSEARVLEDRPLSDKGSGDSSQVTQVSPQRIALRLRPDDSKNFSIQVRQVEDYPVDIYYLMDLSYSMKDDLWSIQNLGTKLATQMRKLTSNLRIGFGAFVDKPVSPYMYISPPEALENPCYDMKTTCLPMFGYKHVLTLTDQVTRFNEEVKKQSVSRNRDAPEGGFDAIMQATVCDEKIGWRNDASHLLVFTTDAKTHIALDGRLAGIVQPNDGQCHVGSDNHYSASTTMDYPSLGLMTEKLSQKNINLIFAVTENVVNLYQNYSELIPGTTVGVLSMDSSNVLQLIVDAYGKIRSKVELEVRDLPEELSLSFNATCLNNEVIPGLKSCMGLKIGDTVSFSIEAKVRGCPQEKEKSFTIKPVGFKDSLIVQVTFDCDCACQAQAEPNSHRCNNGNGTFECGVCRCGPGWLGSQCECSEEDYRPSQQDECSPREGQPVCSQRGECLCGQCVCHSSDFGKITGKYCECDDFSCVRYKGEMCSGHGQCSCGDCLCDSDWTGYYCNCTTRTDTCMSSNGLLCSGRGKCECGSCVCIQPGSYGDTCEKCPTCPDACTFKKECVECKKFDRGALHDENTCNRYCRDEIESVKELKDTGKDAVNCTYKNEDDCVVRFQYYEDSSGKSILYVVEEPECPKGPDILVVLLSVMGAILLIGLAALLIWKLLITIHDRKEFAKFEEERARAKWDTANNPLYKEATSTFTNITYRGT

For this assay, the target named is IIbIIIa receptor (Homo sapiens, UniProt P05106+P08514). The experiment in a line: biochemical. The settings on record: read-out: IC50 (Ratio to GRGDV IC50). The procedure:
Microtier plates are coated with fibrinogen (10 ug/ml) and then blocked with TACTS buffer containing 0.5% BSA. (TACTS buffer contains 20 mM Tris.HCl, pH 7.5, 0.02% sodium azide, 2 mM calcium chloride, 0.05% Tween 20, 150 mM sodium chloride.) The plate is washed with phosphate buffered saline containing 0.01% Tween 20 and a dilution of the sample to be determined added, followed by addition of solubilized IIbIIIa receptor (40 ug/ml) in TACTS, 0.5% BSA. After incubation, the plate is washed and murine monoclonal anti-platelet antibody AP3 (1 ug/ml) added. After another wash, […] IgG conjugated to horseradish peroxidase are added. A final wash is performed and developing reagent buffer (10 mg o-phenylenediamine dihydrochloride, 0.0212% hydrogen peroxide, 0.22 mM citrate, 50 mM phosphate, pH 5.0) is added and then incubated until color developed. The reaction is stopped with 1N sulfuric acid and the absorbance at 492 nm is recorded. […] The ratio represents the ratio of the IC50 of the test compound to the IC50 of the internal standard (GRGDV).
On to `CC(C)[C@H](NC(=O)[C@H](CC(=O)O)NC(=O)CNC(=O)[C@H]1C[C@H](CNC(=N)N)CN1)C(=O)O` [##STR51##], for which the IC50 amounted to 6.4 nM.

As to `CC(C)[C@H](NC(=O)[C@H](CC(=O)O)NC(=O)CNC(=O)[C@@H]1C[C@H](CNC(=N)N)CN1)C(=O)O` [##STR52##], the IC50 is 10 nM.

In the case of `CC(C)[C@H](NC(=O)[C@H](CC(=O)O)NC(=O)CNC(=O)[C@@H]1C[C@@H](CNC(=N)N)CN1C(=O)CN)C(=O)O` [##STR53##] (H-G[X4]GDV-OH), the IC50 was 30 nM.

`CC(C)[C@H](NC(=O)[C@H](CC(=O)O)NC(=O)CNC(=O)[C@H]1C[C@H](NC(=N)N)CN1C(=O)CN)C(=O)O` [##STR54##] (H-G[X3]GDV-OH): the IC50 came to 226 nM.

Take `CC(C)[C@H](NC(=O)[C@H](CC(=O)O)NC(=O)CNC(=O)[C@@H]1C[C@H](NC(=N)N)CN1C(=O)CN)C(=O)O` [##STR55##] (H-G[Pro(cis-4-guanidino)]GDV-OH): the IC50 came out at 565 nM.

For `CC(C)[C@H](NC(=O)[C@H](CC(=O)O)NC(=O)CNC(=O)[C@H]1C[C@H](CNC(=N)N)CN1C(=O)CN)C(=O)O` [##STR56##] (H-G[X5]GDV-OH), the IC50 was found to be 37 nM.

On to `CC(C)[C@H](NC(=O)[C@H](CC(=O)O)NC(=O)CNC(=O)[C@H]1C[C@@H](CNC(=N)N)CN1C(=O)CN)C(=O)O` [##STR57##] (H-G[X1]GDV-OH), for which the IC50 stood at 25 nM.

For `CC(C)[C@H](NC(=O)[C@H](CC(=O)O)NC(=O)CNC(=O)[C@@H]1C[C@H](CNC(=N)N)CN1C(=O)CN)C(=O)O` [##STR58##] (H-G[X2]GDV-OH), the IC50 came to 101 nM.

Consider `CC(C)[C@H](NC(=O)[C@H](CC(=O)O)NC(=O)CNC(=O)[C@@H]1C[C@H](NC(=N)N)CN1)C(=O)O` [##STR59##] (H-[Pro(cis-4-guanidino)]GDV-OH), for which the IC50 was found to be 155 nM.

As for `CC(C)[C@H](NC(=O)[C@H](CC(=O)O)NC(=O)CNC(=O)[C@@H]1C[C@@H](NC(=N)N)CN1C(=O)CN)C(=O)O` [##STR60##] (H-G[Pro(trans-4-guanidino)]GDV-OH), the IC50 turned out to be 1700 nM.

For the origin of these results see patent US5120859A, “Chimeric amino acid analogues” (dated 1992).
